Test results published in PubChem BioAssay AID720624 (Broad Institute, 2013).
Results filed as inconclusive are left out.

Tested on: SNB-75 viability, CellTiter-Glo ATP luminescence, 8-48 h
Experiment: SNB-75 astrocytoma cell viability loss, late-stage follow-up, mechanism study for HRAS target identification, CellTiter-Glo ATP luminescence, several timepoints, dry powder (AID 720624)

Row | Compound | AC50 (measured here: 8 h treatment) [µM] | AC50 (measured here: 24 h treatment) [µM] | AC50 (measured here: 48 h treatment) [µM]
1 | Cc1onc(C(=O)N2CCN(C(c3ccc(Cl)cc3)c3ccc(Cl)cc3)CC2)c1[N+](=O)[O-] | 0.629 | 0.49 | 1.05
2 | C#CCCCC(=O)NCCOCCOCCOc1ccc(N(C(=O)CCl)C(C(=O)NCCc2ccccc2)c2cccs2)cc1Cl (stereo not given) | 3.81 | 2.48 | 4.78
3 | COc1ccc(N(C(=O)CCl)C(C(=O)NCCc2ccccc2)c2cccs2)cc1Cl (stereo not given) | 0.298 | 0.246 | 0.319
4 | COC(=O)c1ccc([C@@H]2c3[nH]c4ccccc4c3C[C@@H](C(=O)OC)N2C(=O)CCl)cc1 | 0.479 | 0.224 | 0.418
5 | CC(C)(C)OC(=O)NCCOCCOCCOc1ccc(N(C(=O)CCl)C(C(=O)NCCc2ccccc2)c2cccs2)cc1Cl (stereo not given) | 0.787 | 0.398 | 1.03
